Assay type in all cases: cell-based
The test system of experiment [1] is Staphylococcus aureus ATCC #6538. Description: Minimum Inhibitory Concentration (MIC) assay with Minimum Biocidal Concentration (MBC). The note with it: solvent DMSO; for MIC / MBC: Staphylococcus aureus, ATCC6538; for MIC: 24±2 hrs at 35° C., OD<50% of growth control, read-out: S. aureus MIC (ppm); for MBC: read-out: S. aureus MBC (ppm). As to the method:
The Minimum Inhibitory Concentration (MIC) assay is a 96-well high throughput method that determines the minimum concentration of an active required to inhibit the growth of microorganisms. Compounds are evaluated against the following microorganisms: Staphylococcus aureus ATCC #6538 (American Type Culture Collection, Manassas, Virginia, USA). To prepare solutions, the bacteria are streaked on Tryptic Soy Agar (TSA, Becton Dickinson DIFCO™ Tryptic Soy Agar, Franklin Lakes, NJ, USA) and incubated at 30-35° C. for 18-24 hrs. Confluent growth is transferred to saline (0.85% NaCl and turbidometrically adjusted to a target concentration of 10^7-10^8 CFU/ml. This inoculum solution is further diluted 1:1000 in Tryptic Soy Broth (TSB, Becton Dickinson, Franklin Lakes, NJ, USA) for assay use. Two-fold serial dilutions are prepared in Dimethylsulfoxide (DMSO, Thermo Scientific Pierce DMSO, Sequencing Grade) or sterile water for each test sample. In a sterile 96-well plate, each dilution is further diluted in broth inoculum such that each well contained 5% dilution and 95% broth inoculum. Bacteria and yeast plates were incubated on an orbital shaker (Heidolph Titramax 1000 Vibrating Platform Shaker, 200-300 rpm) for 24±2 hrs at 35° C. After incubation, the optical density (OD) of each well is measured in a spectrophotometer (Victor Nivo Multimode Plate Reader) at 600 nm. […] The MBC was determined as the most dilute concentration with no visible growth.

For experiment [2], the system named is Escherichia coli ATCC 8739. Description: Minimal Kill Concentration (MKC) assay, 96 well plate. The note with it: 20-minute contact time. As to the method: (§1) The MKC assay is a 96 well plate method to determine the minimum concentration of a test material or composition needed to kill Gram-negative and Gram-positive bacteria (Escherichia coli ATCC 8739 and Staphylococcus aureus ATCC 6538, respectively). The bacterial suspensions are prepared from 10× freezer stocks with 15% glycerol. The freezer stocks are centrifuged at 13,000×g (Eppendorf Centrifuge […] No. 5417 05483) for 1 minute. The supernatant is removed, and the cell pellet is resuspended in 1 mL saline (Sodium chloride solution 0.9%, Cytiva REF: Z1376), and then transferred to 9 mL saline. The target cfu/ml is 10^8, which is confirmed via serial diluting and plating on TSA plates (Tryptic Soy Agar-Sigma-Aldrich Cat #22091). Then 50 μL of bacteria is added to each well of a 96 well 0.5 mL V-Bottom plate (Greiner bio-one REF: 786201) to make a bacteria plate, one separate plate for each bacterium. The dilutions of the test compounds are prepared in a separate 96 well plate. The test compounds are tested at six dilutions in duplicates or with no replication diluted across the entire plate. The test compounds are prepared in Dimethyl Sulfoxide (Sigma Aldrich GR ACS Cat. No: MX1458-6) or sterile water at 2× the intended test concentration, and then serially diluted in the appropriate vehicle 1:2 across the plate using a multichannel. 50 μL from the test compound plate is added to each well in the bacteria plate all at once using an Integra VIAFLOW 96 channel pipette (Model: VIAFLO 96) and the Integra 300 μL Head (Part No. 6103). With addition of the 2× compounds bacteria plate, the compounds are diluted to a 1× test concentration. The addition of the test compounds to the bacteria wells starts the 20-minute contact time. The plates are mixed well using a Mix-Mate (Eppendorf SE). After 20 minutes, 1 μL from each well of the bacteria plate is transferred to premade Tryptic Soy Agar (TSA) plates (OmniTray Cell Culture Treated w/Lid Sterile, Cat. No: 165218) for spot plating using the Integra VIAFLOW 96 with the Integra 12.5 μL head (Part No. 6101). Then 4 μL from each well of the bacteria/compound plate is transferred to another 96 well plate containing 36 μL of neutralizer broth Modified Letheen Broth (BD Difco Letheen Broth, Modified REF 263010). The contact time is stopped at 20 minutes once the compound plate is neutralized. The plates are mixed well using a Mix-Mate and then 1 μL of the neutralizer+sample mix is transferred to a TSA OmniTray plate using the Integra VIAFLOW and Integra 12.5 μL head. The TSA spot plates are then incubated overnight for 20 hours at 37° C. in an Incubator. This process is done for both bacteria species. After overnight incubation, the plates are removed from the incubator and the results recorded by observing which dilutions had bacterial kill/growth. The last dilution that had kill for both replicates is recorded as the MKC. A positive control of Benzalkonium chloride (Sigma Aldrich Cat. No.: 12060-5G) and vehicle controls are always included in the test.

The test system of experiment [3] is Staphylococcus aureus ATCC 6538. Described as above. The note with it: 20-minute contact time. As to the method: as §1
Setting [4] is: most dilute concentration with no visible growth on neutralizing agar.

Converted amounts (≈) assume the structure as drawn. A value given as a limit tells only on which side of the number the result lay.

Turning to `CCCCCCCC(CC(=O)O)O[C@@H]1O[C@@H](C)[C@H](O)[C@@H](O)[C@H]1O` (stereo partly drawn) [RhaC10, 3-(((2R,3R,4R,5R,6S)-3,4,5-trihydroxy-6-methyltetrahydro-2H-pyran-2-yl)oxy)decanoic acid], the MIC in experiment [1] was more than 10000 µg/mL. Besides, the MBC in experiment [1] (setting [4]) was more than 10000 µg/mL. In addition, the “MKC (ppm) E. coli” value in experiment [2] (solvent water) is given as more than 1338 ppm. Moreover, in experiment [3] (solvent water), the “MKC (ppm) S. aureus” value is listed as more than 1338 ppm.

As to `CCCCCCCCCC(O)CC(=O)O` (racemic) [DL-β-Hydroxylauric acid], the “S. aureus MBC (ppm)” value in experiment [1] (setting [4]) came out at 650 ppm. Also, the “MKC (ppm) E. coli” value in experiment [2] (solvent water) is reported as more than 865 ppm. Besides, in experiment [3] (solvent water), the “MKC (ppm) S. aureus” value was more than 865 ppm.

In the case of `CCCCCCCCC[C@@H](O)CC(=O)O` [(3R)-3-hydroxydodecanoic acid], in experiment [2] (solvent water), the “MKC (ppm) E. coli” value is more than 865 ppm. Moreover, the “MKC (ppm) S. aureus” value in experiment [3] (solvent water) came out at 865 ppm.

For the compound `CCCCCC(CC(=O)O)O[C@@H]1O[C@@H](C)[C@H](O)[C@@H](O)[C@H]1O` (stereo partly drawn) [RhaC8, 3-(((2R,3R,4R,5R,6S)-3,4,5-trihydroxy-6-methyltetrahydro-2H-pyran-2-yl)oxy)octanoic acid], in experiment [1], the minimum inhibitory concentration (MIC) stood at 10000 µg/mL (≈ 32.6 mM). Further, in experiment [1] (setting [4]), the MBC was more than 10000 µg/mL. Moreover, in experiment [2] (solvent water), the “MKC (ppm) E. coli” value is on record as more than 1225 ppm. Further, the “MKC (ppm) S. aureus” value in experiment [3] (solvent water) is given as more than 1225 ppm.

Take `CCCCCCCCCCCC(CC(=O)O)O[C@@H]1O[C@@H](C)[C@H](O)[C@@H](O)[C@H]1O` (stereo partly drawn) [RhaC14, 3-(((2R,3R,4R,5R,6S)-3,4,5-trihydroxy-6-methyltetrahydro-2H-pyran-2-yl)oxy)tetradecanoic acid]: in experiment [1], the MIC worked out at 625 µg/mL (≈ 1.6 mM). Also, the MBC in experiment [1] (setting [4]) is more than 10000 µg/mL. Also, the “MKC (ppm) E. coli” value in experiment [2] (solvent DMSO) is recorded as 781 ppm. In addition, the “MKC (ppm) S. aureus” value in experiment [3] (solvent DMSO) came out at 781 ppm.

Consider `CCCCCCCC(O)CC(=O)O` (racemic) [(±)-3-Hydroxydecanoic acid], for which the MBC in experiment [1] (setting [4]) is more than 1130 µg/mL. Moreover, the “MKC (ppm) E. coli” value in experiment [2] (solvent water) was 753 ppm. For the same compound, in experiment [3] (solvent water), the “MKC (ppm) S. aureus” value is given as 753 ppm.

For `CCCCCCCCCCCCCC(O)CC(=O)O` (racemic) [DL-β-Hydroxypalmitic acid], the “MKC (ppm) E. coli” value in experiment [2] (solvent DMSO) is on record as 136 ppm. For the same compound, the “MKC (ppm) S. aureus” value in experiment [3] (solvent DMSO) is more than 1090 ppm.

Take `CCCCCCCCCCCC(O)CC(=O)O` (racemic) [DL-β-Hydroxymyristic acid]: the “MKC (ppm) E. coli” value in experiment [2] (solvent DMSO) was determined as 122 ppm. In experiment [3] (solvent DMSO), the “MKC (ppm) S. aureus” value worked out at 244 ppm.

Consider `CCCCCCCCCC(CC(=O)O)O[C@@H]1O[C@@H](C)[C@H](O)[C@@H](O)[C@H]1O` (stereo partly drawn) [RhaC12, 3-(((2R,3R,4R,5R,6S)-3,4,5-trihydroxy-6-methyltetrahydro-2H-pyran-2-yl)oxy)dodecanoic acid], for which, in experiment [1], the MIC was found to be 1250 µg/mL (≈ 3.45 mM). The MBC in experiment [1] (setting [4]) was more than 10000 µg/mL. The “MKC (ppm) E. coli” value in experiment [2] (solvent water) is recorded as more than 1450 ppm. In addition, the “MKC (ppm) S. aureus” value in experiment [3] (solvent water) is on record as 725 ppm.

With `CCCCCC(O)CC(=O)O` (racemic) [(±)-3-Hydroxyoctanoic acid], the “MKC (ppm) E. coli” value in experiment [2] (solvent water) is reported as more than 641 ppm. Moreover, the “MKC (ppm) S. aureus” value in experiment [3] (solvent water) is on record as more than 641 ppm.

The values are drawn from patent US20260000078A1, “ANTI-MICROBIAL SYSTEM” (The Procter & Gamble Company, priority 2024, published 2026).
